Assays:
[1] = target: T1, Salmonella typhimurium tryptophan synthase holoenzyme (α2β2), TSα reaction (Salmonella typhimurium, UniProt P00929); assay: Inhibition of tryptophan synthase by the TSα reaction, microtiter kinetic coupled enzyme assay; assay type: biochemical
T1 construct: made in house; host or cells: E. coli strain CB149pSTB7
In short: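 S. typhimurium α2β2 holoenzyme (~1.5 e.u.) in 50 mM Tris-Cl pH 7.8 with 60 mM serine, started with 100 μM IGP (1.5-2× Km), 37° C. Glyceraldehyde-3-P formation coupled to yeast GAPDH/1.6 mM NAD+, read at 340 nm. Inhibitor at 100 μM or 1:1 dilutions; some preincubated 24 h before IGP.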

[2] = test system: mustard, hemp sesbania, soybean, lambsquarters, pigweed, bindweed, morningglory, corn, green foxtail, velvetleaf; assay: Early injury symptoms and species effects on postemergence treated plants; assay type: in vivo; conditions: post emergence, 4 or 8 kg/ha; for Symptoms 6 DAT: 6 days after application
Description: Herbicidal compounds of the invention were examined for their herbicidal effects by observing symptoms on postemergence treated plants.
Early injury symptoms caused by the TS-inhibiting herbicides of the invention are represented in Table 13. Symptoms and species effects are represented through the herbicidal activity {4-[(o-hydroxyphenyl)thio]butyl}-phosphonic acid, applied at 4 or 8 kg/ha.

[3] = test system: Arabidopsis thaliana; assay: Herbicidal activity and tryptophan reversal on Arabidopsis grown on agar medium; assay type: in vivo; design: key: 0 - no effect; 9 - total kill; C - chlorotic seedlings 4-6 days after treatment
Protocol: In this experiment, TS inhibitors were tested on Arabidopsis thaliana grown Murashige minimal organics medium, (obtained from Life Technologies, Grand Island, N.Y.), containing 0.7% agar. Compounds were tested at different concentrations to assess their herbicidal activity.

[4] = test system: a variety of dicotyledonous and monocotyledonous plants; assay: Postemergence greenhouse herbicidal test; assay type: in vivo; conditions: Postemergence application
Protocol: The herbicidal activity of the compounds was tested as described in the U.S. Pat. No. 5,635,449. […] In the tests, seedling plants are grown in jiffy flats for about two weeks. The test compounds are dispersed in 50/50 acetone/water mixtures containing 0.5% TWEEN®20, a polyoxyethylene sorbitan monolaurate surfactant of Atlas Chemical Industries, in sufficient quantities to provide the equivalent of about 1.0 kg to 8.0 kg per hectare of test compound when applied to the plants through a spray nozzle operating at 40 psi for a predetermined time. After spraying, the plants are placed on greenhouse benches and are cared for in the usual manner, commensurate with conventional greenhouse practices. From four to five weeks after treatment, the seedling plants are examined and rate according to the rating system set forth below.

T1 sequence (P00929 whole entry): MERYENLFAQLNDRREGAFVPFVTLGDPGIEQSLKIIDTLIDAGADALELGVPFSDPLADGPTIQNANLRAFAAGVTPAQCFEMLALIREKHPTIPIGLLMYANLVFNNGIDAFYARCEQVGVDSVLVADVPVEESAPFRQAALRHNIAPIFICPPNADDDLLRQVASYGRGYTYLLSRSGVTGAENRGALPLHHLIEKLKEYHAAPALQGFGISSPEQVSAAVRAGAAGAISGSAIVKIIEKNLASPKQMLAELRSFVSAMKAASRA
T1 sequence (P0A2K1 2-397, further chain): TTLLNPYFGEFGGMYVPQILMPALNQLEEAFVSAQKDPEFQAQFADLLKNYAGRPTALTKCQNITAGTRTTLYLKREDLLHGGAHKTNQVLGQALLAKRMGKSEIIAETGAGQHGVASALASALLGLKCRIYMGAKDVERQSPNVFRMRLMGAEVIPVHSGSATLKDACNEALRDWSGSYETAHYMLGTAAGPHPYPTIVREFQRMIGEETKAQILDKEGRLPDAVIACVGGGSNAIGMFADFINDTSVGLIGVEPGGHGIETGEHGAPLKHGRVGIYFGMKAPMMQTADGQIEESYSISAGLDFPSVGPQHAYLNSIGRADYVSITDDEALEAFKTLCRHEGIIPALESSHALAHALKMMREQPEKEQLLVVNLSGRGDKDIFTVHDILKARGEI

## O=P(O)(O)CCCCSc1ccccc1O [Compound 22, {4-[(o-hydroxyphenyl)thio]butyl}-phosphonic acid]
[1]; I50 TS, TSα reaction of Salmonella holoenzyme
  IC50: 130 nM
[1]; TSα activity (Salmonella enzyme) I50
  IC50: 130 nM
[2]; height reduction
  Symptoms 6 DAT: height reduction: lambs quarter,
[2]; increased branching
  Symptoms 6 DAT: increased branching: soybean
[2]; leaf mottling
  Symptoms 6 DAT: leaf mottling: mustard, soybean,
[2]; leaf yellowing
  Symptoms 6 DAT: leaf yellowing: mustard, hemp
[2]; shoot tip yellowing
  Symptoms 6 DAT: shoot tip yellowing: hemp sesbania
[2]; tip necrosis
  Symptoms 6 DAT: tip necrosis: hemp sesbania
[2]; 13 days after application
  Species effects, 13 DAT: bindweed: bindweed: mottling, some necrosis,
  Species effects, 13 DAT: corn: corn: unaffected
  Species effects, 13 DAT: green foxtail: green foxtail: stunted, yellowing, red
  Species effects, 13 DAT: hemp sesbania: hemp sesbania: no growth between 6
  Species effects, 13 DAT: lambsquarters height reduction: lambsquarters: 40% height reduction,
  Species effects, 13 DAT: pigweed height reduction: pigweed: 25% height reduction
  Species effects, 13 DAT: soybean: soybean: shoot nearly dead except
  Species effects, 13 DAT: velvetleaf height reduction: velvetleaf: 50% height reduction
[3]; herbicide 7.8 μM
  herbicidal injury rating: 0
[3]; herbicide 16 μM
  herbicidal injury rating: 1
[3]; herbicide 31 μM
  herbicidal injury rating: 1C
[3]; herbicide 63 μM
  herbicidal injury rating: 3C
[3]; herbicide 125 μM
  herbicidal injury rating: 3C
[3]; herbicide 250 μM
  herbicidal injury rating: 3C
[3]; herbicide 500 μM
  herbicidal injury rating: 5C
[3]; herbicide 1000 μM
  herbicidal injury rating: 6C
[3]; herbicide 7.8 mM, no Trp
  herbicidal rating: 5
[3]; herbicide 16 mM, no Trp
  herbicidal rating: 5
[3]; herbicide 31 mM + 100 μM Trp
  herbicidal rating: 0
[3]; herbicide 31 mM, no Trp
  herbicidal rating: 6
[3]; herbicide 63 mM + 100 μM Trp
  herbicidal rating: 1
[3]; herbicide 63 mM, no Trp
  herbicidal rating: 6
[3]; herbicide 125 mM + 100 μM Trp
  herbicidal rating: 3
[3]; herbicide 125 mM, no Trp
  herbicidal rating: 6
[3]; herbicide 250 mM + 100 μM Trp
  herbicidal rating: 5
[3]; herbicide 250 mM, no Trp
  herbicidal rating: 6
[3]; herbicide 500 mM + 100 μM Trp
  herbicidal rating: 3
[3]; herbicide 500 mM, no Trp
  herbicidal rating: 6
[3]; herbicide 1000 mM + 100 μM Trp
  herbicidal rating: 3
[3]; herbicide 1000 mM, no Trp
  herbicidal rating: 7
[4]
  Herbicidal Activity: +++ (+++ = 80-100% injury to two species)
